Laboratory results published in patent US6881414B2, “Mild cosmetic composition with stabilized retinoids” (Unilever Home & Personal Care USA, division of Conopco, Inc., priority 2000, dated 2005).
One block for each compound: values may come before it.

Tests used:
[1] = target: T1, LRAT (Bos taurus, UniProt Q9BGL2); assay: LRAT activity assay, RPE microsomes (to identify B1); format: biochemical, bovine; settings: for % Inhibition LRAT (10 μm): compound 10 μm; for % Inhibition LRAT (100 μm): compound 100 μm
T1 construct: followed by approximately 15 μg of RPE microsomal protein; tissue W. L. Lawson Co; host or cells: bovine retinal pigment epithelium microsomes
T1 sequence (Q9BGL2 1-230): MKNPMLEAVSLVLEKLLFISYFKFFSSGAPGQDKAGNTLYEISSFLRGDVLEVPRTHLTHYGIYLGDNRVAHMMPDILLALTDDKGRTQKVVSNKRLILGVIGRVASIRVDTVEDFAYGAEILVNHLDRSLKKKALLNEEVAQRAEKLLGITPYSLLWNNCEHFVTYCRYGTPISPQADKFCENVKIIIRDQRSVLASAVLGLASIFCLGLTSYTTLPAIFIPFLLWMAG

[2] = test system: TGase I in keratinocytes; assay: Transglutaminase (TGase I) ELISA assay in cultured keratinocytes; format: cell-based; settings: added effect of booster+retinol induced TGase inhibition over retinol alone
[3] = target: T2, CRABPII (Homo sapiens, UniProt P29373); assay: CRABPII antagonist radioactive binding assay (to identify B4); settings: competition with radioactive all trans retinoic acid; ligand excess ratio not given
T2 construct: made in house; host or cells: E. coli BLR(DE3)pLysS
T2 sequence (P29373 1-138): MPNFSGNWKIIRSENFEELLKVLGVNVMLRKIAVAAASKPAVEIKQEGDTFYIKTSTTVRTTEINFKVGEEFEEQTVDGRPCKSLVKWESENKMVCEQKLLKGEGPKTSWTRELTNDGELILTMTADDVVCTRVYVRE
Description: 2.6 Assay for CRABPII Antagonists (To Identify B4)
2.6.1. Synthesis of CRABPII
The gene CRABPII was cloned in pET 29a-c(+) plasmid (Novagen). The cloned gene was under control of strong bacteriophage T7 transcription and translation signals. The source of T7 polymerase was provided by the host cell E.coli BLR(DE3)pLysS (Novagen). The latter has a chromosomal copy of T7 polymerase under lacUV5 control, induced by the presence of IPTG.
The plasmid was transferred into E. coli BLR(DE3)pLysS cells by transformation according to the manufacturer protocol (Novagen).
An overnight culture of the transformed cells was diluted 1:100 into 2×YT containing 50 μg/mL kanamycin and 25 μg/mL chloramphenicol. The cells grew while shaking at 37° C. until the OD at 600 nm reached 0.6-0.8. Then IPTG was added to a final concentration of 1 mM and the culture was incubated for an additional two hours. The cells were harvested by centrifugation at 5000 g for 10 minutes at room temperature. The pellet was stored at −20° C.
Purification was performed according to the method described in A. W. Norris & E. Li, Generation and characterization of cellular retinoic acid-binding proteins from Escherichia coli expression systems”. Methods Enzymol. 282:3-13 (1997).
The frozen pellet was thawed at RT and resuspended in 1-2 pellet volumes of freshly prepared lysis buffer (50 mM Tris-HCl, pH 8, 10% (w/v) sucrose, 1 mM EDTA, 0.05% (w/v) sodium azide, 0.5 mM DTT, 10 mM MnCl2, 2.5 mM phenylmethylsulfonyl fluoride, 2.5 mM benzamidine, 6 μg/mL DNase). The lysate was incubated for 30 min at room temperature. Further lysis was accomplished by sonication (six 30-sec bursts at […] alternated with five 30-sec delay on ice). […]
The supernatant from step a. was loaded onto a 2.5×100 cm column of sephacryl S-300 (Pharmacia) at room temperature. […] Collected 2-mL fractions were checked for ultraviolet absorbance at 280 nm. […]
For the competitive assay, another ligand in excess (6670:1, 670:1 or 70:1) was added to the mix. […] The radioactivity of the filtrate was measured by scintillation counter.

[4] = Retinoid solubility in oil (UV spectroscopy of filtrate); format: physicochemical
Description: As an illustration, solubility of retinol crystals in varying oils is as follows:
Retinoid solubility in oil is determined by the following procedure. A known weight of pure retinoid in excess of the expected solubility limit in the oil is added in an oil. Methanol is added to the mixture to dissolve all retinoid crystals. Nitrogen sparging is used to ensure all methanol was evaporated from the oil. Retinoid is allowed to recrystallize overnight. The sample is filtered through a 0.45 micron filter. Known dilutions of the filtrate in isopropanol are measured by UV spectroscopy at an appropriate wavelength (325 nm for retinol) and the concentration of retinoid determined against calibration standards of retinoid in isopropanol.

SMILES: CC(/C=C/C=C(\C)C(=O)O)=C\C=C\C=C(C)\C=C\C=C(/C)C(=O)O [Crocetin]
- % Inhibition LRAT (10 μm) [1]: 0%

SMILES: CN1CCN(C)C1=O [Dimethyl Imidazolidinone]
- % Inhibition Overall TG (- ROH/RE) [2]: 22%

SMILES: CC(C)=CCCC(C)=CCCC(C)=CCO [Farnesol]
- % Inhibition LRAT (10 μm) [1]: 10% +/− 7

SMILES: CC(C)=CCC/C(C)=C/CC/C(C)=C/CC/C(C)=C/CO [Geranyl Geraniol]
- % Inhibition LRAT (10 μm) [1]: 16% +/− 9

SMILES: C=CC(C)(O)CCC=C(C)C (centres unmarked) [Linatool]
- % Inhibition LRAT (100 μm) [1]: 0%

SMILES: O=C1C[C@@H](c2ccc(O)cc2)Oc2cc(O)cc(O)c21 [Naringenin]
- % Inhibition LRAT (100 μm) [1]: 14%

SMILES: CC1=C(/C=C/C(C)=C/C=C/C(C)=C/CO)C(C)(C)CCC1 [retinol]
- Solubility of retinol crystals in oil ([4]; in C12-15 Alkyl benzoate): 85 wt %
- Solubility of retinol crystals in oil ([4]; in Cetiol OE): 80 wt %
- Solubility of retinol crystals in oil ([4]; in Cyclomethicone): 2.7 wt %
- Solubility of retinol crystals in oil ([4]; in Dimethicone): 0.49 wt %
- Solubility of retinol crystals in oil ([4]; in Isostearyl palmitate): 44 wt %
- Solubility of retinol crystals in oil ([4]; in Mineral oil): 34.2 wt %
- Solubility of retinol crystals in oil ([4]; in Triolein/Squalene (6:1)): 56.4 wt %

Further lines, results first:

- % Inhibition CRABPII [3]: >50%
SMILES: CCCCCCCC/C=C/CCCCCCCC(=O)O [Elaidic Acid]

- % Inhibition CRABPII [3]: >50%
SMILES: O=C(O)CCCCCCCCCCCCCCC(=O)O [Hexadecanedioic Acid]

- % Inhibition CRABPII [3]: >50%
SMILES: CC(C)CCCCCCCCCCCCCCC(=O)O [Isostearic Acid]

- % Inhibition Overall TG (- ROH/RE) [2]: 59%
SMILES: CCCCC/C=C\C/C=C\CCCCCCCC(=O)N(CCO)CCO [Linoleamide-DEA, Linoleoyl Diethanolamide]
